Values after ≈ are worked out from the molar mass of the structure shown. Values joined by “and” are separate entries in the source; they are usually repeats but may differ in a detail not shown here. Identical values can stand only once. Blank lines part the entries; values can stand above or below the compound they belong to.
Legend:
Experiment in all cases: ≥ marks a high value that may be exact or a test limit, other limits are often not marked, values filed in µg/mL are converted to µM
[1] = tested on: Salmonella enterica subsp. enterica serovar Enteritidis ATCC 13076
[2] = tested on: Bacillus anthracis
[3] = tested on: Lactiplantibacillus plantarum ATCC 8014
[4] = tested on: Bacillus cereus ATCC 14579
[5] = tested on: Staphylococcus aureus
[6] = tested on: Serratia marcescens
[7] = tested on: Priestia flexa
[8] = tested on: Bacillus licheniformis
[9] = tested on: Staphylococcus aureus ATCC 25923
[10] = tested on: Escherichia coli
[11] = tested on: Escherichia coli ATCC 25922
[12] = tested on: Lactococcus lactis ATCC 11454
[13] = tested on: Enterobacter sp.
[14] = tested on: Bacillus subtilis ATCC 6633
[15] = tested on: Klebsiella pneumoniae ATCC 700603
[16] = tested on: Bacillus subtilis
[17] = tested on: Candida albicans ATCC 18804
[18] = tested on: Staphylococcus aureus A170
[19] = tested on: Staphylococcus epidermidis
[20] = tested on: Klebsiella pneumoniae M6
[21] = tested on: Acinetobacter baumannii AYE
[22] = tested on: Enterococcus faecalis NCTC 775
[23] = tested on: Enterococcus faecalis NCTC 12201
[24] = tested on: Staphylococcus aureus NCTC 13277
[25] = tested on: Pseudomonas aeruginosa PAO1
[26] = tested on: Staphylococcus aureus NCTC 13616
[27] = tested on: Staphylococcus aureus NCTC 6571
[28] = tested on: Pseudomonas aeruginosa NCTC 13437
[29] = tested on: Acinetobacter baumannii ATCC 17978
[30] = tested on: Klebsiella pneumoniae NCTC 13368
[31] = tested on: Candida albicans NCPF 3179
[32] = tested on: Candida tropicalis
[33] = tested on: Vibrio parahaemolyticus CCRC 10806
[34] = tested on: Escherichia coli BL21
[35] = tested on: Pseudomonas aeruginosa
[36] = tested on: Klebsiella pneumoniae CCRC 10694
[37] = tested on: Salmonella typhimurium CCRC 12947
[38] = tested on: Staphylococcus aureus CCRC 12652
[39] = tested on: Streptococcus alactolyticus
[40] = tested on: Citrobacter koseri
[41] = tested on: Staphylococcus xylosus
[42] = tested on: Salmonella enterica
[43] = tested on: Escherichia coli JM109
[44] = tested on: Staphylococcus aureus CCRC 15211
[45] = tested on: Escherichia coli D21
[46] = tested on: Pseudomonas aeruginosa ATCC 27853
[47] = tested on: Acinetobacter calcoaceticus Ac11
[48] = tested on: Salmonella enterica subsp. enterica serovar Typhimurium LT2
[49] = tested on: Micrococcus luteus ATCC 9341
[50] = tested on: Bacillus subtilis ATCC 6051
[51] = tested on: Bacillus megaterium Bm11

SMILES: CC(C)C[C@H](NC(=O)[C@@H](NC(=O)[C@H](CO)NC(=O)[C@H](CC(C)C)NC(=O)[C@@H]1CCCN1C(=O)[C@H](CC(C)C)NC(=O)[C@H](CO)NC(=O)[C@H](CCCCN)NC(=O)[C@H](CO)NC(=O)[C@@H](N)Cc1ccc(O)cc1)C(C)C)C(=O)N[C@@H](CC(N)=O)C(=O)N1CCC[C@H]1C(=O)O [YSKSLPLSVLNP]
- MIC [1]: 3.04 µM (≈ 4 µg/mL)
- MIC [2]: ≥ 97.2 µM
- MIC [3]: 24.3 µM (≈ 32 µg/mL)
- MIC [4]: ≥ 48.6 µM
- MIC [5]: 48.6 µM (≈ 64 µg/mL)
- MIC [6]: 24.3 µM (≈ 32 µg/mL)
- MIC [7]: 24.3 µM (≈ 32 µg/mL)
- MIC [8]: ≥ 97.2 µM
- MIC [9]: 24.3 µM (≈ 32 µg/mL)
- MIC [10]: 6.07 µM (≈ 8 µg/mL)
- MIC [11]: 6.07 µM (≈ 8 µg/mL)
- MIC [12]: ≥ 97.2 µM
- MIC [13]: 12.1 µM (≈ 16 µg/mL)
- MIC [14]: 12.1 µM (≈ 16 µg/mL)
- MIC [15]: 12.1 µM (≈ 16 µg/mL)
- MIC [16]: 24.3 µM (≈ 32 µg/mL)

SMILES: CC[C@H](C)[C@H](NC(=O)[C@H](C)NC(=O)[C@H](CCC(=O)O)NC(=O)[C@H](CO)NC(=O)[C@H](Cc1ccccc1)NC(=O)[C@H](CCCCN)NC(=O)[C@H](Cc1ccccc1)NC(=O)[C@H](CO)NC(=O)[C@H](CCC(=O)O)NC(=O)[C@H](C)NC(=O)[C@@H](NC(=O)[C@H](CCCCN)NC(=O)[C@H](CCCCN)NC(=O)[C@@H](NC(=O)[C@@H](NC(=O)[C@H](CC(=O)O)NC(=O)[C@H](Cc1ccccc1)NC(=O)[C@H](CC(C)C)NC(=O)CN)[C@@H](C)CC)[C@@H](C)CC)[C@@H](C)CC)C(=O)N[C@@H](CCCCN)C(=O)N[C@@H](CCCCN)C(=O)N[C@H](C(=O)N[C@H](C(=O)N[C@@H](CC(=O)O)C(=O)N[C@@H](Cc1ccccc1)C(=O)N[C@@H](CC(C)C)C(=O)NCC(=O)O)[C@@H](C)CC)[C@@H](C)CC [GLFDIIKKIAESFKFSEAIKKIIDFLG]
- MIC [17]: ≥ 128 µM
- MIC [9]: > 128 µM
- MIC [11]: 128 µM (≈ 393 µg/mL)

SMILES: CC[C@H](C)[C@H](NC(=O)[C@H](CCCCN)NC(=O)[C@@H]1CCCN1C(=O)[C@@H](NC(=O)[C@H](CC(C)C)NC(=O)[C@H](C)NC(=O)[C@H](Cc1ccccc1)NC(=O)[C@H](Cc1ccccc1)NC(=O)CN)[C@@H](C)CC)C(=O)N[C@H](C(=O)N[C@@H](CO)C(=O)O)[C@@H](C)CC [GFFALIPKIIS]
- MIC [45]: ≥ 100 µM
- MIC [46]: > 100 µM
- MIC [47]: ≥ 100 µM
- MIC [48]: ≥ 100 µM
- MIC [49]: ≥ 100 µM
- MIC [50]: ≥ 100 µM
- MIC [51]: ≥ 100 µM

More lines, main results first:

- MIC [18]: 3.55 µM (≈ 5 µg/mL)
- MIC [19]: 7.11 µM (≈ 10 µg/mL)
SMILES: CC[C@H](C)[C@H](NC(=O)[C@@H]1CCCN1C(=O)[C@H](CC(C)C)NC(=O)[C@@H](N)CC(C)C)C(=O)N[C@H](C(=O)N[C@@H](C)C(=O)N[C@@H](CC(N)=O)C(=O)N[C@@H](CC(C)C)C(=O)N[C@@H](CC(C)C)C(=O)N[C@@H](CCCCN)C(=O)N[C@@H](CO)C(=O)N[C@@H](CC(C)C)C(=O)N[C@@H](CC(C)C)C(=O)O)C(C)C [LLPIVANLLKSLL]

- MIC [20]: ≥ 77 µM
- MIC [21]: 19.2 µM and ≥ 38.5 µM
- MIC [22]: ≥ 77 µM
- MIC [23]: ≥ 77 µM
- MIC [24]: ≥ 77 µM
- MIC [25]: > 77 µM
- MIC [26]: ≥ 77 µM
- MIC [27]: ≥ 77 µM
- MIC [28]: ≥ 77 µM
- MIC [29]: 19.2 µM and ≥ 38.5 µM
- MIC [30]: ≥ 77 µM
- MIC [31]: ≥ 77 µM
SMILES: CC[C@H](C)[C@H](NC(=O)[C@@H]1CCCN1C(=O)[C@H](CC(C)C)NC(=O)[C@H](CC(C)C)NC(=O)[C@H](CCCCN)NC(=O)[C@@H](N)CCCCN)C(=O)N[C@H](C(=O)N[C@@H](C)C(=O)N[C@@H](CC(N)=O)C(=O)N[C@@H](CC(C)C)C(=O)N[C@@H](CC(C)C)C(=O)N[C@@H](CCCCN)C(=O)N[C@@H](CO)C(=O)N[C@@H](CC(C)C)C(=O)N[C@@H](CC(C)C)C(N)=O)C(C)C [KKLLPIVANLLKSLL]

- MIC [32]: 25.9 µM (≈ 31.9 µg/mL)
SMILES: CSCC[C@H](NC(=O)[C@@H](N)CC(C)C)C(=O)N[C@H]1CSSC[C@@H](C(=O)N[C@@H](CO)C(=O)N[C@@H](CC(N)=O)C(=O)O)NC(=O)[C@H](CC(=O)O)NC(=O)[C@H](CC(C)C)NC(=O)[C@@H]2CCCN2C(=O)[C@H](Cc2cnc[nH]2)NC(=O)[C@H]([C@@H](C)O)NC1=O [LMCTHPLDCSN]

- MIC [34]: 5.28 µM (≈ 7.99 µg/mL)
- MIC [35]: 84.5 µM (≈ 128 µg/mL)
- MIC [36]: 21.1 µM (≈ 32 µg/mL)
- MIC [37]: 21.1 µM (≈ 32 µg/mL)
- MIC [38]: 15.9 µM (≈ 24 µg/mL)
- MIC [39]: 10.6 µM (≈ 16 µg/mL)
- MIC [40]: 2.64 µM (≈ 4 µg/mL)
- MIC [41]: 1.32 µM (≈ 2 µg/mL)
- MIC [42]: 10.6 µM (≈ 16 µg/mL)
- MIC [43]: 5.28 µM (≈ 7.99 µg/mL)
- MIC [44]: 21.1 µM (≈ 32 µg/mL)
SMILES: CC[C@H](C)[C@H](N)C(=O)N[C@@H](CC(N)=O)C(=O)N[C@@H](CC(C)C)C(=O)N[C@@H](CCCCN)C(=O)N[C@@H](C)C(=O)N[C@H](C(=O)N[C@@H](C)C(=O)N[C@@H](C)C(=O)N[C@@H](Cc1ccccc1)C(=O)N[C@@H](C)C(=O)N[C@@H](CCCCN)C(=O)N[C@@H](CCCCN)C(=O)N[C@@H](CC(C)C)C(=O)N[C@@H](CC(C)C)C(N)=O)[C@@H](C)CC [INLKAIAAFAKKLL]
- MIC [33]: 21.1 µM (≈ 32 µg/mL)

Reference: DBAASP
